One block for each molecule: values may come before it.
Legend:
Test in all cases: competitive isoTOP-ABPP
Type in all cases: binding
[1] = target: T1, NLN Neurolysin, mitochondrial (Homo sapiens, UniProt Q9BYT8); conditions: 50 uM, in vitro; for isoTOP-ABPP ratio (R) at liganded lysine Q9BYT8_K253: sol, 231
T1 construct: isoTOP-ABPP experiments performed in cell lysates (in vitro); endogenous in cells; host or cells: soluble proteome of human cancer cell lines (MDA-MB-231; Ramos and Jurkat also prepared)
T1 sequence (Q9BYT8 38-704): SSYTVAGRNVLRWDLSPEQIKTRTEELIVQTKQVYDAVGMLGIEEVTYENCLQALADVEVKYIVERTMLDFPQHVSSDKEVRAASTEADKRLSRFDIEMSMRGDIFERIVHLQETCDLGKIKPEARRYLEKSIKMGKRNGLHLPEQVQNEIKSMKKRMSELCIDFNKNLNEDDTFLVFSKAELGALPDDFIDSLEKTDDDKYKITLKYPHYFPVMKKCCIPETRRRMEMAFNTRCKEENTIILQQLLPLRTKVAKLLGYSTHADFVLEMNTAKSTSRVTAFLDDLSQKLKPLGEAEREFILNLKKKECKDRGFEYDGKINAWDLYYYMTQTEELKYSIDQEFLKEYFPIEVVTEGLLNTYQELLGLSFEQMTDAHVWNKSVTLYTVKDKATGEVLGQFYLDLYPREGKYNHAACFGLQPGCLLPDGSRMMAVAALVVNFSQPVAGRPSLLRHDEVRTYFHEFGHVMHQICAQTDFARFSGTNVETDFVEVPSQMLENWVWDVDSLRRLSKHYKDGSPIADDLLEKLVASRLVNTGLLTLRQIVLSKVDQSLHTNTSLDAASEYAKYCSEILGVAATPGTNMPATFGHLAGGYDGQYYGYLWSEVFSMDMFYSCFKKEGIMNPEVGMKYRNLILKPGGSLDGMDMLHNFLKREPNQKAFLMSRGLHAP
Summary of the method: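 Here, isoTOP-ABPP measures loss of STP-alkyne labeling at individual lysines after fragment exposure in lysate. Activated esters are dosed at 50 μM, guanidinylating agents at 100 μM; the probe follows at 0.1 mM for 1 h. R ≥4 marks a liganded lysine.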

ADK Adenosine kinase = target: T2, ADK Adenosine kinase (Homo sapiens, UniProt P55263); parameters: key to isoTOP-ABPP reactivity ratio at lysine P55263_K88: R = MS1 peak area ratio, DMSO (heavy) / compound-treated (light); conditions: for isoTOP-ABPP ratio (R) at liganded lysine P55263_K88 / R value (DMSO/fragment) for probe 1 labeling / isoTOP-ABPP reactivity ratio at lysine P55263_K88: 50 uM, in vitro; for isoTOP-ABPP ratio (R) at liganded lysine P55263_K88: sol, 231; for R value (DMSO/fragment) for probe 1 labeling: P55263_K88; for R value (DMSO/fragment) for probe 1 labeling / isoTOP-ABPP reactivity ratio at lysine P55263_K88: 231 sol
T2 construct: isoTOP-ABPP experiments performed in cell lysates (in vitro); endogenous in cells; host or cells: soluble proteome of human cancer cell lines (MDA-MB-231, Ramos, Jurkat)
T2 sequence (P55263 whole entry, the tested form may be a part): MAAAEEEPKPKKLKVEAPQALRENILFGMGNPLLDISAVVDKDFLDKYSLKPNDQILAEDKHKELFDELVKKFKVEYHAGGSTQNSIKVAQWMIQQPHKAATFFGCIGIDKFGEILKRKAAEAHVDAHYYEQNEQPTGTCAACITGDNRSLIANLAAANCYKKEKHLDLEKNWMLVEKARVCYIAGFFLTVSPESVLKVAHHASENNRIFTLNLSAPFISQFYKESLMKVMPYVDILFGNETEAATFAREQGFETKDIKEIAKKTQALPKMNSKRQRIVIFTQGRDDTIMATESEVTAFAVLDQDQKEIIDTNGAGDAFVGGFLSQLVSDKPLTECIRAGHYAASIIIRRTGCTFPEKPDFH
Protocol: (§1) In vitro covalent fragment treatment for isoTOP-ABPP. All compounds were made up as solutions in DMSO (100×) and were used at a final concentration of 50 μM for activated esters and 100 μM for guanidinylating agents. For each profiling sample, 0.5 ml of lysate was treated with 5 μl of the 100× compound stock solution or 5 μl of DMSO. Samples were treated with activated esters for
(§2) STP-alkyne labeling and click chemistry. For concentration-dependent reactivity measurements by isoTOP-ABPP, 0.5 ml proteome aliquots were treated at ambient temperature with 1 mM STP-alkyne 1 (5 μl of 100 mM stock in DMSO) and 0.1 mM STP alkyne 1 (5 μl of 10 mM stock in DMSO), respectively. For competitive isoTOP-ABPP, after in vitro fragment treatment (detailed above), the samples were labeled for 1 h at ambient temperature with 0.1 mM STP-alkyne 1 (5 μl of 10 mM stock in DMSO). Samples were conjugated by copper-mediated azide-alkyne cycloaddition (CuAAC) to either the light (1 mM STP-alkyne or fragment treated) or heavy (0.1 mM STP-alkyne or DMSO treated) TEV tags (10 μl of 5 mM stocks in DMSO, final concentration=100 μM) using tris(2-carboxyethyl)phosphine hydrochloride
(§3) R value calculation and processing. The ratios of light and heavy MS1 peaks for each unique peptide were quantified with a CIMAGE software using default parameters (3 MS1 acquisitions per peak and signal to noise threshold set to 2.5). For reactivity measurements by isoTOP-ABPP, the R value was calculated from the ratio of MS1 peak areas, comparing the 1 mM STP alkyne sample (light TEV tag) with the 0.1 mM STP alkyne sample (heavy TEV tag). For competitive isoTOP-ABPP, the R value was calculated from the ratio of MS1 peak areas, comparing the DMSO treated sample (heavy TEV tag) with the compound treated sample (light TEV tag). […] Ratios for unique peptide entries are calculated for each experiment; overlapping peptides with the same modified lysine (for example, different charge states, MudPIT chromatographic steps or tryptic termini) are grouped together and the median ratio is reported as the final ratio (R). The peptide ratios reported by CIMAGE were further filtered to ensure the removal or correction of low-quality ratios in each individual data set. The quality filters applied were the following: removal of half tryptic peptides; for ratios with high standard deviations from the median (90% of the median or above) the lowest ratio was taken instead of the median; removal of peptides with R=20 and only a single MS2 event triggered during the elution of the parent ion; manual annotation of all the peptides with ratios of 20, removing any peptides with low quality elution profiles that remained after the previous curation steps (only done for competitive isoTOP-ABPP).
(§4) Cross-data processing for fragment screening. For compound treated samples, biological replicates of the same condition were averaged, if the standard deviation was below 60% of the mean; otherwise, for lysines with at least one R value <4 for a particular compound, the lowest value of the ratio set was taken. For lysines, where all R values for a particular compound were ≥4, the average was reported. For peptides containing several possible modified lysines, the lysine with the highest number of quantification events was used for analysis and the remaining, redundant peptides were reported as alternative modification sites. Peptides included in the aggregate dataset (those used for further bioinformatics and statistical analyses) were required to have been quantified in 2 experiments for competitive isoTOP-ABPP. Lysines were categorized as liganded, if they had at least one ratio R≥4 (hit fragments). For liganded lysines with R=20 for all liganding events, lysines were required to have been quantified with R=20 in two separate experiments and were further required to have been quantified with R<20 in one additional experiment.

[2] = target: T3, ISOC2 Isochorismatase domain-containing protein 2, mitochondrial (Homo sapiens, UniProt Q96AB3); parameters: key to isoTOP-ABPP reactivity ratio at lysine Q96AB3_K178: R = MS1 peak area ratio, DMSO (heavy) / compound-treated (light); capped at 20; conditions: for isoTOP-ABPP ratio (R) at liganded lysine Q96AB3_K178: sol, 231; for R value (DMSO/fragment) for probe 1 labeling: Q96AB3_K178
T3 construct: isoTOP-ABPP experiments performed in cell lysates (in vitro); endogenous in cells; host or cells: soluble proteome of human cancer cell lines (MDA-MB-231; Ramos and Jurkat also prepared)
T3 sequence (Q96AB3 1-205): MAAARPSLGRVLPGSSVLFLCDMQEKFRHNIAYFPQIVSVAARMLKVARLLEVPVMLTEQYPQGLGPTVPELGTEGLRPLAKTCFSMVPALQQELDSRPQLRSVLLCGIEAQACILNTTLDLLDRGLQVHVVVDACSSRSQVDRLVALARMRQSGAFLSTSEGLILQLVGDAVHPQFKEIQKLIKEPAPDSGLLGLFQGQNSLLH
Protocol: as §1, §2, §3, §4

[3] = target: T4, PFKP 6-phosphofructokinase type C (Homo sapiens, UniProt Q01813); parameters: key to isoTOP-ABPP reactivity ratio at lysine Q01813_K688: R = MS1 peak area ratio, DMSO (heavy) / compound-treated (light); conditions: for isoTOP-ABPP ratio (R) at liganded lysine Q01813_K688 / R value (DMSO/fragment) for probe 1 labeling / isoTOP-ABPP reactivity ratio at lysine Q01813_K688: 50 uM, in vitro; for isoTOP-ABPP ratio (R) at liganded lysine Q01813_K688: sol, 231; for R value (DMSO/fragment) for probe 1 labeling: Q01813_K688; for R value (DMSO/fragment) for probe 1 labeling / isoTOP-ABPP reactivity ratio at lysine Q01813_K688: 231 sol
T4 construct: isoTOP-ABPP experiments performed in cell lysates (in vitro); endogenous in cells
T4 sequence (Q01813 1-784): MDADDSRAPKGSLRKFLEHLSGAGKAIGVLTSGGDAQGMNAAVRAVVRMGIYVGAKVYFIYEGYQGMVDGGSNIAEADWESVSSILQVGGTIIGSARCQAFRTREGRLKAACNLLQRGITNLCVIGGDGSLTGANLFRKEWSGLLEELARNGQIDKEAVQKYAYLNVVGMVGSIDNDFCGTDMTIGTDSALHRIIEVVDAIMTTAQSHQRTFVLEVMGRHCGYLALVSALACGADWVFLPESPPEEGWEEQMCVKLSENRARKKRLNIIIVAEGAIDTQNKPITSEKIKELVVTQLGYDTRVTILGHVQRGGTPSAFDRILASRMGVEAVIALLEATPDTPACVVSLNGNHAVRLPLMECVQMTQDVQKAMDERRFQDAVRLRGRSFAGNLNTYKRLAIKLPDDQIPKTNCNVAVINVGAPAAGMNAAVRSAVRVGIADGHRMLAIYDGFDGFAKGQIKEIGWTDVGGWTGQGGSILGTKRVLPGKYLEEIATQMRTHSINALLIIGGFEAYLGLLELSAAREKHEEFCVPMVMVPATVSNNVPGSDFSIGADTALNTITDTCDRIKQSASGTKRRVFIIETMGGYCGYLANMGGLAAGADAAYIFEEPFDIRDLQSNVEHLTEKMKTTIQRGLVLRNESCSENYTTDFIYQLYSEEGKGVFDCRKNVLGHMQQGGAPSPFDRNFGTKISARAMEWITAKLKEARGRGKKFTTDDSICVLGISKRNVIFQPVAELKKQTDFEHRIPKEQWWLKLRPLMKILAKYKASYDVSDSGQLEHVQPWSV
Protocol: as §1, §2, §3, §4

Structure (SMILES): CC(C)(C)OC(=O)NCCCC(=O)Oc1ccc([N+](=O)[O-])cc1[N+](=O)[O-] [fragment 41, 2,4-Dinitrophenyl 4-((tert-butoxycarbonyl)amino)butanoate]
isoTOP-ABPP ratio (R) at liganded lysine Q9BYT8_K253 [1]: 1.3 | isoTOP-ABPP ratio (R) at liganded lysine P55263_K88 (ADK Adenosine kinase): 1.5 | isoTOP-ABPP ratio (R) at liganded lysine Q96AB3_K178 ([2]; 50 uM, in vitro): 1.9 | isoTOP-ABPP ratio (R) at liganded lysine Q01813_K688 [3]: 4.9

Structure (SMILES): O=C(Oc1ccc([N+](=O)[O-])cc1[N+](=O)[O-])c1ccc(-c2ccccc2)cc1 [fragment 37, 2,4-Dinitrophenyl [1,1′-biphenyl]-4-carboxylate]
isoTOP-ABPP ratio (R) at liganded lysine Q9BYT8_K253 [1]: 0.9 | isoTOP-ABPP ratio (R) at liganded lysine P55263_K88 (ADK Adenosine kinase): 0.8 | isoTOP-ABPP ratio (R) at liganded lysine Q96AB3_K178 ([2]; 50 uM, in vitro): 0.9 | isoTOP-ABPP ratio (R) at liganded lysine Q01813_K688 [3]: 1.0

Structure (SMILES): O=C(Oc1c(F)c(F)c(F)c(F)c1F)C1CCN(C(=O)OCc2ccccc2)CC1 [fragment 24, 1-Benzyl 4-(pentafluorophenyl) piperidine-1,4-dicarboxylate]
isoTOP-ABPP reactivity ratio at lysine P55263_K88 (ADK Adenosine kinase): 1.0 | isoTOP-ABPP reactivity ratio at lysine Q01813_K688 [3]: 2.5

Structure (SMILES): NC(=O)c1cc(C(F)(F)F)cc(C(F)(F)F)c1 [fragment 51, reference compound]
isoTOP-ABPP ratio, lysine P55263_K88 (ADK Adenosine kinase; 50 uM_231_sol_in vitro): 0.8 | isoTOP-ABPP ratio, lysine Q96AB3_K178 ([2]; 50 uM_231_sol_in vitro): 0.9 | isoTOP-ABPP ratio, lysine Q01813_K688 ([3]; 50 uM_231_sol_in vitro): 0.9

Second part, the molecule after the results:

R value (DMSO/fragment) for probe 1 labeling ([1]; Q9BYT8_K253, 231 sol): 1.5 | R value (DMSO/fragment) for probe 1 labeling (ADK Adenosine kinase): 1.0 | R value (DMSO/fragment) for probe 1 labeling ([2]; 50 uM, 231 sol, in vitro): 1.0 | R value (DMSO/fragment) for probe 1 labeling [3]: 2.0
Structure (SMILES): Cn1cc(CC(=O)Oc2c(F)c(F)c(F)c(F)c2F)c2ccccc21 [fragment 22, Pentafluorophenyl 2-(1-methyl-1H-indol-3-yl)acetate]

R value (DMSO/fragment) for probe 1 labeling (ADK Adenosine kinase): 0.7 | R value (DMSO/fragment) for probe 1 labeling ([2]; 50 uM, 231 sol, in vitro): 1.2 | R value (DMSO/fragment) for probe 1 labeling [3]: 2.1
Structure (SMILES): COc1cc(CCC(=O)Oc2c(F)c(F)c(F)c(F)c2F)cc(OC)c1OC [fragment 23, Pentafluorophenyl 3-(3,4,5-trimethoxyphenyl)propanoate]

isoTOP-ABPP reactivity ratio at lysine P55263_K88 (ADK Adenosine kinase): 0.8 | isoTOP-ABPP reactivity ratio at lysine Q96AB3_K178 ([2]; 50 uM, 231 sol, in vitro): 1.3 | isoTOP-ABPP reactivity ratio at lysine Q01813_K688 [3]: 20.0
Structure (SMILES): O=C(CN1C(=O)c2ccccc2C1=O)Oc1c(F)c(F)c(F)c(F)c1F [fragment 27, Pentafluorophenyl 2-(1,3-dioxoisoindolin-2-yl)acetate]

— patent publication US20210255193A1, “LYSINE REACTIVE PROBES AND USES THEREOF” (The Scripps Research Institute, priority 2017, published 2021)
